Measured values reported in patent US20260176300A1, “N-ARYLPYRAZOLE NOD2 AGONISTS AS PROMOTERS OF IMMUNE CHECKPOINT INHIBITOR THERAPY” (THE SCRIPPS RESEARCH INSTITUTE, priority 2022, published 2026).

Tests used:
[1] = tested on: B16-F10 subcutaneous tumors; experiment: B16-F10 tumor growth assay with anti-PD-L1 co-treatment; type: in vivo, mice; settings: wild-type C57BL/6 mice, 100 μg α-PD-L1 and 100 μg compound i.p. every other day
Description: FIG. 3(A-H). NOD2 agonist TT030 activates cytokine production in vitro and improves immune checkpoint inhibitor treatment of tumor growth in vivo. A-D, Measurements of secreted cytokine levels from human peripheral mononuclear blood cells (PMBCs) treated with the indicated compounds for 24 h without or with lipopolysaccharide (LPS). E, Structures of TT030 and its enantiomer (TT030-ent). F, Activation of NOD1- and NOD2-expressing HEK-293T cells with the indicated compounds. C12-iE-DAP is a lipophilic version of the NOD1 agonist, iE-DAP. G, Growth profiles of B16-F10 subcutaneous tumors in wild-type C57BL/6 mice treated with 100 μg α-PD-L1 and 100 μg of the indicated compounds every other day starting at Day 7. H, Growth profiles of B16-F10 subcutaneous tumors in wild-type or Nod2^−/− C57BL/6 mice treated with 100 μg α-PD-L1 and 100 μg TT030 every other day starting at Day 7. Cytokine secretion assays and NOD activation assays were analyzed using a one-way ANOVA with Dunnett's multiple comparisons test compared to the DMSO control. Longitudinal tumor growth assays were analyzed using linear mixed-effects model analysis on the log transformed data. ns=not significant, *P<0.05, **P<0.01, ***P<0.001, ****P<0.0001.
Animals. Specific pathogen-free, eight-week old male C57BL/6J (B6, 000664) and B6.129S1—Nod2^tm1Flv/J (Nod2^−/−, 005763 from Flavell Lab, Yale School of Medicine) were obtained from The Jackson Laboratory. Animals were housed in autoclaved caging with SaniChip bedding and enrichment for nest building on a 12-hour light/dark cycle. Animals were provided gamma-irradiated chow (LabDiet, 5053) and sterile drinking water ad libitum. Animal care and experiments were conducted in accordance with NIH guidelines and approved by the Institutional Animal Care and Use Committee at Scripps Research (Protocol AUP-21-095).
Tumor growth assay. B16-F10 cells were subcultured on the day prior to harvesting for tumor inoculation. On the day of injection, cells were harvested using TrypLE Express, washed and resuspended in cold PBS, and counted with a hemocytometer. Cells were then resuspended at 2×10^6 cells mL^−1 in PBS and mixed 1:1 with Matrigel matrix (Corning; growth factor reduced, 356231). Cell suspensions were kept on ice prior to injection. Animals were anesthetized using 3% isoflurane, and their right flank was shaved with hair clippers. Animals were then subcutaneously injected with 100 μL of the cell suspension on their mid-right flank (1×10^5 cells per injection). Once tumors were established at roughly 25-100 mm^3, tumor volume was measured every other day. Digital calipers were used to measure the length and width of each tumor, and tumor volume was calculated as length×[…], where width was the smaller of the two measurements. […]

[2] = biological target: T1, NOD2 (Homo sapiens, UniProt Q9HC29); experiment: NOD2-HEK-Blue NF-κB reporter cell activation assay (NOD2-expressing HEK-293T cells); type: cell-based; settings: for Activity after N-methylation on Val: TT018 vs. TT019, TT010 vs. TT020, TT011 vs. TT021, FIG. 2C; for EC50: calculated, three-parameter dose-response nonlinear regression, read-out: pEC50 (μM), dose-dependent activation of NOD2-expressing HEK-293T cells (converted); for Potency in structure-activity comparison: relative to TT007, FIG. 2B, 2D, 2F, 6E
T1 construct: host or cells: HEK-293T-derived HEK-Blue NF-kB/SEAP reporter cells
T1 sequence (Q9HC29 whole entry): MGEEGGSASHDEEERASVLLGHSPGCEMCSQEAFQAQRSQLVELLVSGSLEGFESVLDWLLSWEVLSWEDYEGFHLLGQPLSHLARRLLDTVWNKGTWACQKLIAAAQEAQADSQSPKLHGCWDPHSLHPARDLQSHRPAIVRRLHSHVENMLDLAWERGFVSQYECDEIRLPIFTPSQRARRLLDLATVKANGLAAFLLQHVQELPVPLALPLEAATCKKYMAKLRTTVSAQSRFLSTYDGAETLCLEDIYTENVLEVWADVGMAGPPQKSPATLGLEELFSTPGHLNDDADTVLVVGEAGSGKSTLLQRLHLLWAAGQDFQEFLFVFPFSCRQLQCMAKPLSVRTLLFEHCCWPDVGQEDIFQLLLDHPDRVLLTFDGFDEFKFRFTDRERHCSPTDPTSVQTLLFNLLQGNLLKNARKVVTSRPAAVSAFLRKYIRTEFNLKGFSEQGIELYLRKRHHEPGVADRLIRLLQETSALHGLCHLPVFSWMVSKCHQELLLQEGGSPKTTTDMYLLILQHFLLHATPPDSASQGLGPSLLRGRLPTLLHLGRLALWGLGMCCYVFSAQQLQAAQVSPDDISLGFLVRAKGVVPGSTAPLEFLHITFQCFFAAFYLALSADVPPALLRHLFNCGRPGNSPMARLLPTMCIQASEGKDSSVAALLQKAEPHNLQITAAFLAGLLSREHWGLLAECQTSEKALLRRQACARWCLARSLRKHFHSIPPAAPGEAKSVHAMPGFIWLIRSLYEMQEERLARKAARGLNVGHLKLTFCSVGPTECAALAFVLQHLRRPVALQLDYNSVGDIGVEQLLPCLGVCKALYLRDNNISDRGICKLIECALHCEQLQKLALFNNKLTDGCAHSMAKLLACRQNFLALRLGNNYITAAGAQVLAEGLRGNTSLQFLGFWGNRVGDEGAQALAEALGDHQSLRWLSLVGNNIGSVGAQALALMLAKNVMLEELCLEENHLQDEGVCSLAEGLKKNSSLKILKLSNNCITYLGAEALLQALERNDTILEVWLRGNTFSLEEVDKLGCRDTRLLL
From the text: FIG. 1(A-F). Virtual screening for small molecule NOD2 agonists. A, Docked structure of muramyl dipeptide (MDP) in the leucine-rich repeat (LRR) domain of rabbit NOD2 (pdb 5IRM). […] B, Results of virtual docking approach with reported chemical structures related to MDP. C, Workflow of virtual screening in which a library was generated using carboxylic acids appended to the L-Val-D-Glu dipeptide and then docked to the NOD2 LRR domain. D, Desmuramyl MDP (dMDP) structures resulting from the virtual screen that were synthesized for further screening. Chemicals shown as a pure enantiomer were synthesized as a racemic mixture. E, Activation of NOD2-expressing HEK-293T cells treated for 16 h with 10 µM of the indicated compound using a colorimetric assay. F, Dose-dependent activation of NOD2-expressing HEK-293T cells using the indicated compounds. Numbers in parentheses represent calculated negative log of the half maximal effective concentration (pEC50) values. NOD activation assays were analyzed using a one-way ANOVA with Dunnett's multiple comparisons test compared to the DMSO control. pEC50 values were derived by a three-parameter dose-response nonlinear regression. ****P<0.0001.
FIG. 2(A-G). Structure-activity relationship studies of 3,5-dimethyl-N-arylpyrazole NOD2 agonists. A, Structures of 3,5-dimethyl-N-arylpyrazole structures synthesized for SAR studies. B-F, Dose-dependent activation of NOD2-expressing HEK-293T cells using the indicated compounds grouped by similar structural perturbations. Numbers in parentheses represent calculated pEC50 values. G, Graph of calculated pEC50 values vs. calculated partition coefficient (clogP). Dotted lines show equivalent lipophilic ligand efficiency (LLE) values. Red arrow indicates optimization of the TT007 scaffold to TT030. pEC50 values were derived by a three-parameter dose-response nonlinear regression.
Cell culture. The following cell lines were used and sourced as follows: HEK-Blue NOD2 (InvivoGen, hkb-hnod2), HEK-Blue NOD1 (InvivoGen, hkb-nod1), HEK-Blue Null2 (hkb-null2), and B16-F10 (ATCC CRL-6475). All cell lines were cultured at 37° C. in 5% CO2 in DMEM (ThermoFisher, 11995065) supplemented with 10% fetal bovine serum (FBS), 100 U mL-1 penicillin, and 100 μg mL-1 streptomycin. Cells were maintained at no greater than 70% confluency and subcultured using TrypLE Express. Cell lines were routinely cultured without antibiotics to ensure no bacterial infection and tested for mycoplasma using a Universal Mycoplasma Detection Kit (ATCC 30-1012K). Primary human peripheral mononuclear blood cells (PBMCs) were cultured at 37° C. in 5% CO2 in RPMI 1640 (ThermoFisher, 61870143) supplemented with 10% FBS. All experimental work using human samples was reviewed and approved by the Scripps Research Institutional Review Board (Protocol IRB-21-7816NOD2).
Reporter cell line activation assay. Approximately 24 h before the assay, culture medium for each of the HEK-Blue reporter cell lines was replaced with a 1:1 mixture of DMEM supplemented with 10% FBS and OptiMEM. On the day of the assay, single cell suspensions (150,000 cells/mL) were produced in HEK-Blue detection medium (InvivoGen, hb-det2). Cells were aliquoted at 200 μL per well of a 96-well plate containing 0.2 μL of a 1000× stock of each test compound in DMSO. Cells were then incubated at 37° C. in 5% CO2 for 8-10 h. To measure activity, wells were then gently pipetted up and down to mix the conditioned medium, and absorbance from the colorimetric product of the secreted alkaline phosphatase was measured at 630 nm. In some assays, cells were stimulated for 16 h with compounds as described above in complete DMEM. Then, 20 μL of the conditioned medium was mixed with 180 μL QUANTI-Blue solution (InvivoGen, rep-qbs) and incubated for 2-4 h at 37° C. Activity was then measured by absorbance as described above.

EC50 [2] | SMILES | also measured
 | CCOC(=O)CC[C@H](NC(=O)[C@H](NC(=O)c1c(C)nn(-c2cc[nH]c(=O)c2)c1C)C(C)C)C(=O)OCC [TT030-ent, Diethyl (3,5-dimethyl-1-(2-oxo-1,2-dihydropyridin-4-yl)-1H-pyrazole-4-carbonyl)-D-valyl-L-glutamate] | B16 tumor growth over time [1]: not; NOD2 activity in the HEK-Blue in vitro assay ([2]; FIG. 3F): NOD2-inactive
 | CCOC(=O)CC[C@@H](NC(=O)[C@H](C(C)C)N(C)C(=O)c1cn(-c2ccc(F)cc2)nc1C)C(=O)OCC [TT021, Diethyl N-(1-(4-fluorophenyl)-3-methyl-1H-pyrazole-4-carbonyl)-N-methyl-L-valyl-D-glutamate] | Activity after N-methylation on Val [2]: abolished the activity
10 µM | CCOC(=O)CC[C@@H](NC(=O)[C@@H](NC(=O)c1cn(-c2ccc(F)cc2)nc1C)C(C)C)C(=O)OCC [TT011, Diethyl (1-(4-fluorophenyl)-3-methyl-1H-pyrazole-4-carbonyl)-L-valyl-D-glutamate] | Potency in structure-activity comparison [2]: reduced potency by up to two orders of magnitude
0.0501 µM | CCOC(=O)CC[C@@H](NC(=O)[C@@H](NC(=O)C1(Cc2ccc(F)cc2)CCCC1)C(C)C)C(=O)OCC [TT003, Diethyl (1-(4-fluorobenzyl)cyclopentane-1-carbonyl)-L-valyl-D-glutamate] | 
 | CCOC(=O)CC[C@@H](NC(=O)[C@H](C(C)C)N(C)C(=O)c1cnn(-c2ccc(F)cc2)c1C)C(=O)OCC [TT020, Diethyl N-(1-(4-fluorophenyl)-5-methyl-1H-pyrazole-4-carbonyl)-N-methyl-L-valyl-D-glutamate] | Activity after N-methylation on Val [2]: abolished the activity
0.158 µM | CCOC(=O)CC[C@@H](NC(=O)[C@@H](NC(=O)c1c(C)nn(-c2ccc3cc[nH]c3c2)c1C)C(C)C)C(=O)OCC [TT025, Diethyl (1-(1H-indol-6-yl)-3,5-dimethyl-1H-pyrazole-4-carbonyl)-L-valyl-D-glutamate] | 
 | CCOC(=O)CC[C@@H](NC(=O)[C@@H](NC(=O)/C=C/c1ccc(F)cc1)C(C)C)C(=O)OCC [TT002, Diethyl ((E)-3-(4-fluorophenyl)acryloyl)-L-valyl-D-glutamate] | NOD2 activation, result in words in the pEC50 column ([2]; Table 1): Active
0.631 µM | CCOC(=O)CC[C@@H](NC(=O)[C@@H](NC(=O)C(C)Cc1ccc(F)c(F)c1)C(C)C)C(=O)OCC (mixture of isomers) [TT005, Diethyl (3-(3,4-difluorophenyl)-2-methylpropanoyl)-L-valyl-D-glutamate] | 
0.501 µM | CCOC(=O)CC[C@@H](NC(=O)[C@@H](NC(=O)c1c(C)nn(-c2ccc(N)nc2)c1C)C(C)C)C(=O)OCC [TT026, Diethyl (1-(6-aminopyridin-3-yl)-3,5-dimethyl-1H-pyrazole-4-carbonyl)-L-valyl-D-glutamate] | 
31.6 µM | CCOC(=O)CC[C@@H](NC(=O)[C@@H](NC(=O)c1cnn(-c2ccc(F)cc2)c1C(C)C)C(C)C)C(=O)OCC [TT012, Diethyl (1-(4-fluorophenyl)-5-isopropyl-1H-pyrazole-4-carbonyl)-L-valyl-D-glutamate] | Potency in structure-activity comparison [2]: did not compensate the lack of the other substituent
5.01 µM | CCOC(=O)CC[C@@H](NC(=O)[C@@H](NC(=O)c1cnn(-c2cccnc2)c1)C(C)C)C(=O)OCC [TT037, diethyl (1-(pyridin-3-yl)-1H-pyrazole-4-carbonyl)-L-valyl-D-glutamate] | 
